From patent US20240122182A1, “PESTICIDALLY ACTIVE HETEROCYCLIC DERIVATIVES WITH SULFUR CONTAINING SUBSTITUENTS” (SYNGENTA CROP PROTECTION AG, priority 2021, published 2024)

Tests used:
Format in all cases: in vivo
[1] = tested on: Bemisia tabaci (Cotton White Fly); assay: Activity against Bemisia tabaci (cotton white fly), cotton leaf discs sprayed; details: foliar, 144 h, application rate of 200 ppm, adult white flies, 6 days after incubation
Procedure: Cotton leaf discs were placed on agar in 24-well microtiter plates and sprayed with aqueous test solutions prepared from 10′000 ppm DMSO stock solutions. After drying the leaf discs were infested with adult white flies. The samples were checked for mortality 6 days after incubation.

[2] = tested on: Chilo suppressalis (Striped Rice Stemborer); assay: Activity against Chilo suppressalis (striped rice stemborer), artificial diet; details: 144 h, application rate of 200 ppm, L2 larvae, 6 days after infestation, read-out: control (mortality, anti-feeding effect, growth inhibition)
Procedure: 24-well microtiter plates with artificial diet were treated with aqueous test solutions prepared from 10′000 ppm DMSO stock solutions by pipetting. After drying, the plates were infested with L2 larvae (6-8 per well). The samples were assessed for mortality, anti-feeding effect, and growth inhibition in comparison to untreated samples 6 days after infestation. Control of Chilo suppressalis by a test sample is given when at least one of the categories mortality, anti-feedant effect, and growth inhibition is higher than the untreated sample.

[3] = tested on: Diabrotica Balteata (Corn Root Worm); assay: Activity against Diabrotica balteata (corn root worm), maize sprouts sprayed; details: 96 h, application rate of 200 ppm, L2 larvae, 4 days after infestation, read-out: effect in at least one of the two categories (mortality or growth inhibition)
Procedure: Maize sprouts placed onto an agar layer in 24-well microtiter plates were treated with aqueous test solutions prepared from 10′000 ppm DMSO stock solutions by spraying. After drying, the plates were infested with L2 larvae (6 to 10 per well). The samples were assessed for mortality and growth inhibition in comparison to untreated samples 4 days after infestation.

[4] = tested on: Euschistus heros (Neotropical Brown Stink Bug); assay: Activity against Euschistus heros (neotropical brown stink bug), soybean leaves sprayed; details: 120 h, application rate of 200 ppm, N2 nymphs, 5 days after infestation, read-out: effect in at least one of the two categories (mortality or growth inhibition)
Procedure: Soybean leaves on agar in 24-well microtiter plates were sprayed with aqueous test solutions prepared from 10′000 ppm DMSO stock solutions. After drying the leaves were infested with N2 nymphs. The samples were assessed for mortality and growth inhibition in comparison to untreated samples 5 days after infestation.

[5] = tested on: Myzus persicae (Green Peach Aphid); assay: Activity against Myzus persicae (green peach aphid), feeding/contact activity; details: 144 h, application rate of 200 ppm, mixed ages, 6 days after infestation
Procedure: Sunflower leaf discs were placed onto agar in a 24-well microtiter plate and sprayed with aqueous test solutions prepared from 10′000 ppm DMSO stock solutions. After drying, the leaf discs were infested with an aphid population of mixed ages. The samples were assessed for mortality 6 days after infestation.

[6] = tested on: Myzus persicae (Green Peach Aphid); assay: Activity against Myzus persicae (green peach aphid), systemic activity; details: 144 h, test rate of 24 ppm, pea seedling roots in test solution, 6 days
Procedure: Roots of pea seedlings infested with an aphid population of mixed ages were placed directly into aqueous test solutions prepared from 10′000 DMSO stock solutions. The samples were assessed for mortality 6 days after placing seedlings into test solutions.

[7] = tested on: Plutella xylostella (Diamond Back Moth); assay: Activity against Plutella xylostella (diamond back moth), artificial diet; details: 192 h, application rate of 200 ppm, eggs, 8 days after infestation, read-out: effect in at least one of the two categories (mortality or growth inhibition)
Procedure: 24-well microtiter plates with artificial diet were treated with aqueous test solutions prepared from 10′000 ppm DMSO stock solutions by pipetting. After drying, Plutella eggs were pipetted through a plastic stencil onto a gel blotting paper and the plate was closed with it. The samples were assessed for mortality and growth inhibition in comparison to untreated samples 8 days after infestation.

[8] = tested on: Spodoptera littoralis (Egyptian Cotton Leaf Worm); assay: Activity against Spodoptera littoralis (Egyptian cotton leaf worm), cotton leaf discs sprayed; details: foliar, 72 h, application rate of 200 ppm, L1 larvae, 3 days after infestation, read-out: control (mortality, anti-feeding effect, growth inhibition)
Procedure: Cotton leaf discs were placed onto agar in 24-well microtiter plates and sprayed with aqueous test solutions prepared from 10′000 ppm DMSO stock solutions. After drying the leaf discs were infested with five L1 larvae. The samples were assessed for mortality, anti-feeding effect, and growth inhibition in comparison to untreated samples 3 days after infestation. Control of Spodoptera littoralis by a test sample is given when at least one of the categories mortality, anti-feedant effect, and growth inhibition is higher than the untreated sample.

[9] = tested on: Carpocapsa (Cydia) Pomonella (Codling Moth); assay: Activity against Carpocapsa (Cydia) pomonella (codling moth), larvicide, feeding/contact; details: 336 h, application rate of 12.5 ppm, L1 larvae, 14 days after infestation, read-out: effect in at least one of the two categories (mortality or growth inhibition)
Procedure: Diet cubes coated with paraffin were sprayed with diluted test solutions in an application chamber. After drying off the treated cubes (10 replicates) were infested with 1 L1 larvae. Samples were incubated at 26-27° C. and checked 14 days after infestation for mortality and growth inhibition. The following compounds gave an effect of at least 80% in at least one of the two categories (mortality or growth inhibition) at an application rate of 12.5 ppm: P1, P2, P3, P5, P9, P10, P11, P12, P14, P17, P19, P20, P21, P23, P24, P30, P31.

[10] = tested on: Nilaparvata lugens (Brown Plant Hopper); assay: Activity against Nilaparvata lugens (brown plant hopper), larvicide, systemic into water; details: 168 h, application rate of 12.5 ppm, N3 nymphs, 7 days after infestation
Procedure: Larvicide, systemic into water Rice plants cultivated in a nutritive solution were treated with the diluted test solutions into nourishing cultivation system. 1 day after application plants were infested with ˜20 N3 nymphs. 7 days after infestation samples were assessed for mortality and growth regulation.

[11] = tested on: Tetranychus urticae (Two-Spotted Spider Mite); assay: Activity against Tetranychus urticae (two-spotted spider mite), bean leaf discs sprayed; details: foliar, 192 h
Procedure: Bean leaf discs on agar in 24-well microtiter plates were sprayed with aqueous test solutions prepared from 10′000 ppm DMSO stock solutions. After drying the leaf discs were infested with a mite population of mixed ages. The samples were assessed for mortality on mixed population (mobile stages) 8 days after infestation.

[12] = tested on: Frankliniella occidentalis (Western Flower Thrips); assay: Activity against Frankliniella occidentalis (western flower thrips), sunflower leaf discs sprayed; details: foliar, 168 h, application rate of 200 ppm, population of mixed ages, 7 days after infestation
Procedure: Sunflower leaf discs were placed on agar in 24-well microtiter plates and sprayed with aqueous test solutions prepared from […] stock solutions. After drying the leaf discs were infested with a Frankliniella population of mixed ages. The samples were assessed for mortality 7 days after infestation.

CCS(=O)(=O)c1cc(C(C)(C)C#N)cnc1-c1cc2c(cn1)N(CC(F)(F)C(F)(F)F)C(=O)CC2 [P11, 2-[5-ethylsulfonyl-6-[2-oxo-1-(2,2,3,3,3-pentafluoropropyl)-3,4-dihydro-1,7-naphthyridin-6-yl]-3-pyridyl]-2-methyl-propanenitrile]
≥ 80%: mortality at 200 ppm [1] | mortality at 200 ppm [2] | percent effect (mortality or growth inhibition) at 200 ppm [3] | percent effect (mortality or growth inhibition) at 200 ppm [4] | mortality at 200 ppm [5] | mortality at 24 ppm [6] | percent effect (mortality or growth inhibition) at 200 ppm [7] | mortality at 200 ppm [8] | percent effect (mortality or growth inhibition) at 12.5 ppm [9] | mortality at 12.5 ppm [10]

CCS(=O)(=O)c1cc(C2(C#N)CC2)cnc1-c1cc2c(cn1)N(CC(F)(F)C(F)(F)F)C(=O)CC2 [P12, 1-[5-ethylsulfonyl-6-[2-oxo-1-(2,2,3,3,3-pentafluoropropyl)-3,4-dihydro-1,7-naphthyridin-6-yl]-3-pyridyl]cyclopropanecarbonitrile]
≥ 80%: mortality at 200 ppm [1] | mortality at 200 ppm [2] | percent effect (mortality or growth inhibition) at 200 ppm [3] | percent effect (mortality or growth inhibition) at 200 ppm [4] | mortality at 200 ppm [5] | mortality at 24 ppm [6] | percent effect (mortality or growth inhibition) at 200 ppm [7] | mortality at 200 ppm [8] | percent effect (mortality or growth inhibition) at 12.5 ppm [9] | mortality at 12.5 ppm [10]

CCS(=O)(=O)c1cc(C2(C#N)CC2)cnc1-c1cc2c(cn1)N(CC(F)(F)F)C(=O)CC2 [P2, 1-[5-ethylsulfonyl-6-[2-oxo-1-(2,2,2-trifluoroethyl)-3,4-dihydro-1,7-naphthyridin-6-yl]-3-pyridyl]cyclopropanecarbonitrile]
≥ 80%: mortality at 200 ppm [1] | mortality at 200 ppm [2] | percent effect (mortality or growth inhibition) at 200 ppm [3] | percent effect (mortality or growth inhibition) at 200 ppm [4] | mortality at 200 ppm [5] | mortality at 24 ppm [6] | percent effect (mortality or growth inhibition) at 200 ppm [7] | mortality at 200 ppm [8] | percent effect (mortality or growth inhibition) at 12.5 ppm [9] | mortality at 12.5 ppm [10]

CCS(=O)(=O)c1cc(C(C)(C)F)cnc1-c1cc2c(cn1)N(CC(F)(F)C(F)(F)F)C(=O)CC2 [P23, 6-[3-ethylsulfonyl-5-(1-fluoro-1-methyl-ethyl)-2-pyridyl]-1-(2,2,3,3,3-pentafluoropropyl)-3,4-dihydro-1,7-naphthyridin-2-one]
≥ 80%: mortality at 200 ppm [2] | percent effect (mortality or growth inhibition) at 200 ppm [3] | percent effect (mortality or growth inhibition) at 200 ppm [4] | percent effect (mortality or growth inhibition) at 200 ppm [7] | mortality at 200 ppm [8] | mortality at 200 ppm [11] | percent effect (mortality or growth inhibition) at 12.5 ppm [9] | mortality at 12.5 ppm [10]

CCS(=O)(=O)c1cc(C2(C#N)CC2)cnc1-c1cc2c(cn1)N(CC(F)(F)C(F)(F)F)C(=O)OC2 [P3, 1-[5-ethylsulfonyl-6-[2-oxo-1-(2,2,3,3,3-pentafluoropropyl)-4H-pyrido[3,4-d][1,3]oxazin-6-yl]-3-pyridyl]cyclopropanecarbonitrile]
≥ 80%: mortality at 200 ppm [1] | mortality at 200 ppm [2] | percent effect (mortality or growth inhibition) at 200 ppm [3] | percent effect (mortality or growth inhibition) at 200 ppm [4] | mortality at 200 ppm [5] | percent effect (mortality or growth inhibition) at 200 ppm [7] | mortality at 200 ppm [8] | percent effect (mortality or growth inhibition) at 12.5 ppm [9] | mortality at 12.5 ppm [10]

CCSc1cc(C2(C#N)CC2)cnc1-c1cc2c(cn1)N(CC(F)(F)C(F)(F)F)C(=O)OC2 [P4, 1-[5-ethylsulfanyl-6-[2-oxo-1-(2,2,3,3,3-pentafluoropropyl)-4H-pyrido[3,4-d][1,3]oxazin-6-yl]-3-pyridyl]cyclopropanecarbonitrile]
≥ 80%: mortality at 200 ppm [2] | percent effect (mortality or growth inhibition) at 200 ppm [3] | percent effect (mortality or growth inhibition) at 200 ppm [4] | mortality at 200 ppm [12] | mortality at 200 ppm [5] | percent effect (mortality or growth inhibition) at 200 ppm [7] | mortality at 200 ppm [8]

CCS(=O)(=O)c1cccnc1-c1cc2c(cn1)N(CC(F)(F)C(F)(F)F)C(=O)CC2 [P1, 6-(3-ethylsulfonyl-2-pyridyl)-1-(2,2,3,3,3-pentafluoropropyl)-3,4-dihydro-1,7-naphthyridin-2-one]
≥ 80%: mortality at 200 ppm [2] | percent effect (mortality or growth inhibition) at 200 ppm [3] | percent effect (mortality or growth inhibition) at 200 ppm [4] | mortality at 200 ppm [5] | mortality at 24 ppm [6] | percent effect (mortality or growth inhibition) at 200 ppm [7] | mortality at 200 ppm [8] | percent effect (mortality or growth inhibition) at 12.5 ppm [9] | mortality at 12.5 ppm [10]
